Key:
[1] = molecular target: T1, human mAChR M1 (Homo sapiens, UniProt P11229); test: mAChR M1 cell-based functional assay (calcium mobilization), PAM mode: increase in the EC20 acetylcholine response
T1 sequence (P11229 1-460): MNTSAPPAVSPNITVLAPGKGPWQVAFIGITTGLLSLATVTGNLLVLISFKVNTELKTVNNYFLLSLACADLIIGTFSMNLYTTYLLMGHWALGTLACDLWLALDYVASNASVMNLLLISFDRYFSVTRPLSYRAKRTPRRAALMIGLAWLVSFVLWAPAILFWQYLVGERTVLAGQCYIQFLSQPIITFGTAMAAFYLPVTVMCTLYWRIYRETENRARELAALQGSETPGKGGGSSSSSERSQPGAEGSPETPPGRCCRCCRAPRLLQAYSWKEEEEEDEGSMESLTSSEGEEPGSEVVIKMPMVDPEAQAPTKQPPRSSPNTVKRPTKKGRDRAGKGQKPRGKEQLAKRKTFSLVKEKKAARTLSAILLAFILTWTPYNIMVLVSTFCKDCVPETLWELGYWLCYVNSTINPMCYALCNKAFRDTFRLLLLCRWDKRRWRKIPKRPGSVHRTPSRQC
Summary of the method: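 PAM readout is the concentration-dependent rise in the EC20 acetylcholine calcium signal, fitted to a four-parameter logistic (EC50, Emax). Compounds were preincubated from 4 s before ACh at 144 s (EC20) and 230 s (EC80). hM1-expressing CHO-K1 cells loaded with Fluo-4, FDSS ratio read.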

[2] = molecular target: T1, human mAChR M1; test: mAChR M1 cell-based functional assay (calcium mobilization), agonist mode: compound alone, Emax relative to acetylcholine maximum; conditions: for EC50 / Agonist Activity Human M1 EC50: human mAChR M1; for Emax: relative to the maximum for acetylcholine
Summary of the method: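 Agonist activity is the concentration-dependent rise in intracellular calcium (Fluo-4, 1 Hz read) after compound addition, measured before any acetylcholine was added, in stable hM1 CHO-K1 cells. Curves were 11-point, 1:3 dilutions fitted by four-parameter logistic. Emax is given as a fraction of maximal acetylcholine response.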

Row | EC50 [1] | Emax [1] | EC50 [2] | Emax [2] | Compound | Agonist Activity Human M1 EC50 [2]
1 | 119 nM | 84% | 7520 nM | 37% | [2H]C1([2H])c2ncccc2C(=O)N1Cc1c(F)cc(-c2cccc3nn(C([2H])([2H])[2H])cc23)cc1C1CC1 [Compound 190, 6-(2-Cyclopropyl-6-fluoro-4-(2-(methyl-d3)-2H-indazol-4-yl)benzyl)-6,7-dihydro-5H-pyrrolo[3,4-b]pyridin-5-one-7,7-d2] | –
2 | 1050 nM | 58% | – | 2% | [2H]C1([2H])c2ncccc2C(=O)N1Cc1c(F)cc(-c2cccc3nn(C([2H])([2H])[2H])c(F)c23)cc1C1CC1 [Compound 191, 6-(2-Cyclopropyl-6-fluoro-4-(3-fluoro-2-(methyl-d3)-2H-indazol-4-yl)benzyl)-6,7-dihydro-5H-pyrrolo[3,4-b]pyridin-5-one-7,7-d2] | Inactive
3 | 137 nM | 84% | 5960 nM | 44% | [2H]C1([2H])c2ncccc2C(=O)N1Cc1c(F)cc(-c2cccc3nn(C)cc23)cc1C1CC1 [Compound 192, 6-(2-cyclopropyl-6-fluoro-4-(2-methyl-2H-indazol-4-yl)benzyl)-6,7-dihydro-5H-pyrrolo[3,4-b]pyridin-5-one-7,7-d2] | –
4 | 266 nM | 88% | 9830 nM | 11% | [2H]C1([2H])c2ncccc2C(=O)N1Cc1c(F)cc(-c2ccc3nn(C)cc3c2)cc1C1CC1 [Compound 193, 6-(2-cyclopropyl-6-fluoro-4-(2-methyl-2H-indazol-5-yl)benzyl)-6,7-dihydro-5H-pyrrolo[3,4-b]pyridin-5-one-7,7-d2] | –
5 | 437 nM | 83% | 3550 nM | 18% | [2H]C1([2H])c2ncccc2C(=O)N1Cc1c(C)cc(-c2ccc3nn(C)cc3c2)cc1F [Compound 194, 6-(2-fluoro-6-methyl-4-(2-methyl-2H-indazol-5-yl)benzyl)-6,7-dihydro-5H-pyrrolo[3,4-b]pyridin-5-one-7,7-d2] | –
6 | 198 nM | 79% | 3730 nM | 43% | [2H]C1([2H])c2ncccc2C(=O)N1Cc1c(C)cc(-c2ccc(OC)c3nn(C)cc23)cc1F [Compound 195, 6-(2-fluoro-4-(7-methoxy-2-methyl-2H-indazol-4-yl)-6-methylbenzyl)-6,7-dihydro-5H-pyrrolo[3,4-b]pyridin-5-one-7,7-d2] | –
7 | 437 nM | 83% | 8680 nM | 43% | [2H]C1([2H])c2ncccc2C(=O)N1Cc1c(C)cc(-c2ccc(OC3CC3)c3nn(C)cc23)cc1F [Compound 196, 6-(4-(7-cyclopropoxy-2-methyl-2H-indazol-4-yl)-2-fluoro-6-methylbenzyl)-6,7-dihydro-5H-pyrrolo[3,4-b]pyridin-5-one-7,7-d2] | –
8 | 433 nM | 85% | ≥ 10000 nM | 37% | [2H]C1([2H])c2ncccc2C(=O)N1Cc1c(C)cc(-c2ccc(C)c3nn(C)cc23)cc1F [Compound 197, 6-(4-(2,7-dimethyl-2H-indazol-4-yl)-2-fluoro-6-methylbenzyl)-6,7-dihydro-5H-pyrrolo[3,4-b]pyridin-5-one-7,7-d2] | –
9 | 347 nM | 79% | 5600 nM | 30% | [2H]C1([2H])c2ncccc2C(=O)N1Cc1c(C)cc(-c2ccc(F)c3nn(C)cc23)cc1F [Compound 198, 6-(2-fluoro-4-(7-fluoro-2-methyl-2H-indazol-4-yl)-6-methylbenzyl)-6,7-dihydro-5H-pyrrolo[3,4-b]pyridin-5-one-7,7-d2] | –
10 | 475 nM | 81% | – | 4% | [2H]C1([2H])c2ncccc2C(=O)N1Cc1c(C)cc(-c2ccc(Cl)c3nn(C)cc23)cc1F [Compound 199, 6-(4-(7-chloro-2-methyl-2H-indazol-4-yl)-2-fluoro-6-methylbenzyl)-6,7-dihydro-5H-pyrrolo[3,4-b]pyridin-5-one-7,7-d2] | Inactive
11 | 768 nM | 83% | ≥ 10000 nM | 15% | [2H]C1([2H])c2ncccc2C(=O)N1Cc1c(C)cc(-c2ccc(C(F)(F)F)c3nn(C)cc23)cc1F [Compound 200, 6-(2-fluoro-6-methyl-4-(2-methyl-7-(trifluoromethyl)-2H-indazol-4-yl)benzyl)-6,7-dihydro-5H-pyrrolo[3,4-b]pyridin-5-one-7,7-d2] | –
12 | 332 nM | 83% | 5200 nM | 43% | [2H]C1([2H])c2ncccc2C(=O)N1Cc1c(C)cc(-c2ccnc3nn(C)cc23)cc1F [Compound 201, 6-(2-fluoro-6-methyl-4-(2-methyl-2H-pyrazolo[3,4-b]pyridin-4-yl)benzyl)-6,7-dihydro-5H-pyrrolo[3,4-b]pyridin-5-one-7,7-d2] | –
13 | 429 nM | 81% | 3240 nM | 44% | [2H]C1([2H])c2ncccc2C(=O)N1Cc1c(F)cc(-c2ccc(OC3CC3)c3nn(C)cc23)cc1C1CC1 [Compound 202, 6-(4-(7-cyclopropoxy-2-methyl-2H-indazol-4-yl)-2-cyclopropyl-6-fluorobenzyl)-6,7-dihydro-5H-pyrrolo[3,4-b]pyridin-5-one-7,7-d2] | –
14 | 815 nM | 75% | 2560 nM | 63% | [2H]C1([2H])c2ncccc2C(=O)N1Cc1c(F)cc(-c2ccc(OCCOC)c3nn(C)cc23)cc1C1CC1 [Compound 203, 6-(2-cyclopropyl-6-fluoro-4-(7-(2-methoxyethoxy)-2-methyl-2H-indazol-4-yl)benzyl)-6,7-dihydro-5H-pyrrolo[3,4-b]pyridin-5-one-7,7-d2] | –
15 | 293 nM | 70% | 7450 nM | 49% | [2H]C1([2H])c2ncccc2C(=O)N1Cc1c(F)cc(-c2ccc(C)c3nn(C)cc23)cc1C1CC1 [Compound 204, 6-(2-cyclopropyl-4-(2,7-dimethyl-2H-indazol-4-yl)-6-fluorobenzyl)-6,7-dihydro-5H-pyrrolo[3,4-b]pyridin-5-one-7,7-d2] | –
16 | 248 nM | 86% | 5980 nM | 54% | [2H]C1([2H])c2ncccc2C(=O)N1Cc1c(F)cc(-c2ccc(F)c3nn(C)cc23)cc1C1CC1 [Compound 205, 6-(2-cyclopropyl-6-fluoro-4-(7-fluoro-2-methyl-2H-indazol-4-yl)benzyl)-6,7-dihydro-5H-pyrrolo[3,4-b]pyridin-5-one-7,7-d2] | –
17 | 335 nM | 81% | 9700 nM | 38% | [2H]C1([2H])c2ncccc2C(=O)N1Cc1c(F)cc(-c2ccc(Cl)c3nn(C)cc23)cc1C1CC1 [Compound 206, 6-(4-(7-chloro-2-methyl-2H-indazol-4-yl)-2-cyclopropyl-6-fluorobenzyl)-6,7-dihydro-5H-pyrrolo[3,4-b]pyridin-5-one-7,7-d2] | –
18 | 673 nM | 84% | 8070 nM | 25% | [2H]C1([2H])c2ncccc2C(=O)N1Cc1c(F)cc(-c2ccc(C(F)(F)F)c3nn(C)cc23)cc1C1CC1 [Compound 207, 6-(2-cyclopropyl-6-fluoro-4-(2-methyl-7-(trifluoromethyl)-2H-indazol-4-yl)benzyl)-6,7-dihydro-5H-pyrrolo[3,4-b]pyridin-5-one-7,7-d2] | –
19 | 140 nM | 88% | 1200 nM | 59% | [2H]C1([2H])c2ncccc2C(=O)N1Cc1c(F)cc(-c2ccnc3nn(C)cc23)cc1C1CC1 [Compound 208, 6-(2-cyclopropyl-6-fluoro-4-(2-methyl-2H-pyrazolo[3,4-b]pyridin-4-yl)benzyl)-6,7-dihydro-5H-pyrrolo[3,4-b]pyridin-5-one-7,7-d2] | –
20 | 769 nM | 83% | 2580 nM | 62% | [2H]C1([2H])c2ncccc2C(=O)N1Cc1c(F)cc(-c2ccc(OC)c3nn(C([2H])([2H])[2H])cc23)cc1C1CC1 [Compound 209, 6-(2-cyclopropyl-6-fluoro-4-(7-methoxy-2-(methyl-d3)-2H-indazol-4-yl)benzyl)-6,7-dihydro-5H-pyrrolo[3,4-b]pyridin-5-one-7,7-d2] | –

Row | Compound | EC50 [1] | Emax [1] | EC50 [2] | Emax [2] | Agonist Activity Human M1 EC50 [2]
21 | [2H]C1([2H])c2ncccc2C(=O)N1Cc1c(F)cc(-c2cccc3nn(C)cc23)cc1OCC(C)C [Compound 210, 6-(2-fluoro-6-isobutoxy-4-(2-methyl-2H-indazol-4-yl)benzyl)-6,7-dihydro-5H-pyrrolo[3,4-b]pyridin-5-one-7,7-d2] | 865 nM | 83% | – | 14% | Inactive
22 | [2H]C1([2H])c2ncccc2C(=O)N1Cc1c(F)cc(-c2ccc3nn(C)cc3c2)cc1OCC(C)C [Compound 211, 6-(2-fluoro-6-isobutoxy-4-(2-methyl-2H-indazol-5-yl)benzyl)-6,7-dihydro-5H-pyrrolo[3,4-b]pyridin-5-one-7,7-d2] | 1290 nM | 88% | – | 3% | Inactive

— patent US20240228489A1, “POSITIVE ALLOSTERIC MODULATORS OF THE MUSCARINIC ACETYLCHOLINE RECEPTOR M1” (Vanderbilt University, priority 2021, published 2024)
